In ChEMBL document CHEMBL1124261 (J Med Chem, 1988):

Experiments:
[1] = system: L1210; assay: Increase in life span of mice infected with L1210 leukemia after an intraperitoneal dose of 20 mg/kg for 9 days; format: functional; conditions: Mus musculus, L1210, ip, 216 h
[2] = system: L1210; assay: Mean survival of mice infected with L1210 leukemia after an intraperitoneal dose of 60 mg/kg for 9 days; format: functional, Mus musculus
[3] = system: L1210; assay: Increase in life span of mice infected with L1210 leukemia after an intraperitoneal dose of 60 mg/kg for 9 days; format: functional; conditions: Mus musculus, L1210, ip, 216 h
[4] = system: L1210; assay: Increase in life span of mice infected with L1210 leukemia after an intraperitoneal dose of 40 mg/kg for 9 days; format: functional; conditions: Mus musculus, L1210, ip, 216 h
[5] = system: L1210; assay: Range for the survival of mice infected with L1210 leukemia after an intraperitoneal dose of 60 mg/kg for 9 days; Range is […]; format: functional, Mus musculus
[6] = system: L1210; assay: Mean change in weight of mice infected with L1210 leukemia after 7 days after an intraperitoneal dose of 80 mg/kg; format: functional, Mus musculus
[7] = system: L1210; assay: Tested for cell-growth inhibition against mouse leukemic L1210 cells; format: functional, cell-based
[8] = system: CCRF-CEM; assay: Tested for cell-growth inhibition against human leukemic lymphoblast CEM cells; format: functional, cell-based
[9] = system: L1210; assay: Mean change in weight of mice infected with L1210 leukemia after 7 days after an intraperitoneal dose of 40 mg/kg; format: functional, Mus musculus
[10] = system: L1210; assay: Increase in life span of mice infected with L1210 leukemia after an intraperitoneal dose of 80 mg/kg for 9 days; format: functional; conditions: Mus musculus, L1210, ip, 216 h
[11] = organism: Mus musculus; assay: (§1) Tested for inhibition against purified Folyl-polyglutamate synthase from mouse liver; format: functional; conditions: dose or concentration not given here
[12] = system: L1210; assay: Mean survival of mice infected with L1210 leukemia after an intraperitoneal dose of 80 mg/kg for 9 days; format: functional, Mus musculus
[13] = system: CCRF-CEM; assay: Tested for cell-growth inhibition against human leukemic lymphoblast CEM/MTX cells; format: functional, cell-based
[14] = system: L1210; assay: Mean survival of mice infected with L1210 leukemia after an intraperitoneal dose of 20 mg/kg for 9 days; format: functional, Mus musculus
[15] = system: L1210; assay: Range for the survival of mice infected with L1210 leukemia after an intraperitoneal dose of 20 mg/kg for 9 days; Range is 16-19; format: functional, Mus musculus
[16] = system: L1210; assay: Mean change in weight of mice infected with L1210 leukemia after 7 days after an intraperitoneal dose of 60 mg/kg; format: functional, Mus musculus
[17] = target: T1, Dihydrofolate reductase (Mus musculus, UniProt P00375); assay: biochemical
T1 sequence (P00375 whole entry): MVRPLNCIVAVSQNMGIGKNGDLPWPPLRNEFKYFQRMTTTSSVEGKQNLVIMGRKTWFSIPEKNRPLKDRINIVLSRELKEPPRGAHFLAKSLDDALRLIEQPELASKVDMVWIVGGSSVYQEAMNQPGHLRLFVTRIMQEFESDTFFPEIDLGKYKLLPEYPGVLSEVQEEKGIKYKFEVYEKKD
Description: Tested for inhibition against purified Dihydrofolate reductase from L1210 murine leukemia cells

[18] = system: L1210; assay: Range for the survival of mice infected with L1210 leukemia after an intraperitoneal dose of 40 mg/kg for 9 days; Range is 14-24; format: functional, Mus musculus
[19] = system: L1210; assay: Mean change in weight of mice infected with L1210 leukemia after 7 days after an intraperitoneal dose of 20 mg/kg; format: functional, Mus musculus
[20] = system: L1210; assay: Range for the survival of mice infected with L1210 leukemia after an intraperitoneal dose of 80 mg/kg for 9 days; Range is 12-18; format: functional, Mus musculus
[21] = system: L1210 ( R81); assay: Tested for cell-growth inhibition against mouse leukemic L1210/R81 cells; format: functional, cell-based
[22] = system: L1210; assay: Mean survival of mice infected with L1210 leukemia after an intraperitoneal dose of 40 mg/kg for 9 days; format: functional, Mus musculus
[23] = system: L1210; assay: Range for the survival of mice infected with L1210 leukemia after an intraperitoneal dose of 20 mg/kg for 9 days; Range is 13-14; format: functional, Mus musculus
[24] = system: L1210; assay: Range for the survival of mice infected with L1210 leukemia after an intraperitoneal dose of 60 mg/kg for 9 days; Range is 12-19; format: functional, Mus musculus
[25] = target: T2, Folylpolyglutamate synthase, mitochondrial (Mus musculus) (UniProt P48760); assay: as §1; format: functional; conditions: concentration not given here
T2 sequence (whole entry): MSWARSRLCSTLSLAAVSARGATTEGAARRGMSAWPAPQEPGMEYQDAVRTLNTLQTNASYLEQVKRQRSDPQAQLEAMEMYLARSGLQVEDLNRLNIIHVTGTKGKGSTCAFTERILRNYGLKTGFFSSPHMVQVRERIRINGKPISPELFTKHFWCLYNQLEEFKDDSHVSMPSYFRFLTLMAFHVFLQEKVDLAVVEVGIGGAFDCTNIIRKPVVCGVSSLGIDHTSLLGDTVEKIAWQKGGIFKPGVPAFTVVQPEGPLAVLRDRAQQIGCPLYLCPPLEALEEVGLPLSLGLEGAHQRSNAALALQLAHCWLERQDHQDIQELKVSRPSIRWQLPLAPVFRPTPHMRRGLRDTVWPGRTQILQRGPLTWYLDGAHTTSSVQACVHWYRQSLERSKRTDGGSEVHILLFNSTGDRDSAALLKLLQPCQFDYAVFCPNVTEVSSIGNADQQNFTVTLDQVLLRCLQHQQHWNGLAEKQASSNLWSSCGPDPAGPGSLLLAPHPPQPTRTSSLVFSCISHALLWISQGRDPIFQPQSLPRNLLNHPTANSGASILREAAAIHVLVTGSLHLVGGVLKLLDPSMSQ

[26] = system: L1210; assay: Range for the survival of mice infected with L1210 leukemia after an intraperitoneal dose of 40 mg/kg for 9 days; Range is 14-16; format: functional, Mus musculus
[27] = system: L1210; assay: Range for the survival of mice infected with L1210 leukemia after an intraperitoneal dose of 20 mg/kg for 9 days; Range is 14-16; format: functional, Mus musculus
[28] = target: T2, Folylpolyglutamate synthase, mitochondrial (Mus musculus); assay: as §1; conditions: concentration not given here
[29] = system: L1210; assay: Range for the survival of mice infected with L1210 leukemia after an intraperitoneal dose of 80 mg/kg for 9 days; Range is 9-16; format: functional, Mus musculus
[30] = target: T3, Folylpolyglutamate synthase, mitochondrial (Mus musculus, UniProt P48760); assay: (§2) Inhibitory constant against purified Folyl-polyglutamate synthase from mouse liver
T3 sequence (P48760 whole entry): T2 sequence (whole entry)

[31] = system: L1210; assay: Range for the survival of mice infected with L1210 leukemia after an intraperitoneal dose of 60 mg/kg for 9 days; Range is 17-19; format: functional, Mus musculus
[32] = system: L1210; assay: Range for the survival of mice infected with L1210 leukemia after an intraperitoneal dose of 40 mg/kg for 9 days; Range is 15-22; format: functional, Mus musculus
[33] = system: L1210; assay: Range for the survival of mice infected with L1210 leukemia after an intraperitoneal dose of 80 mg/kg for 9 days; Range is 9-23; format: functional, Mus musculus
[34] = organism: Mus musculus; assay: as §1; conditions: concentration not given here
[35] = system: L1210; assay: Range for the survival of mice infected with L1210 leukemia after an intraperitoneal dose of 40 mg/kg for 9 days; Range is 13-23; format: functional, Mus musculus
[36] = system: L1210; assay: Range for the survival of mice infected with L1210 leukemia after an intraperitoneal dose of 60 mg/kg for 9 days; Range is 10-18; format: functional, Mus musculus
[37] = system: L1210; assay: Range for the survival of mice infected with L1210 leukemia after an intraperitoneal dose of 20 mg/kg for 9 days; Range is 15-16; format: functional, Mus musculus
[38] = as §2; format: functional
[39] = target: T3, Folylpolyglutamate synthase, mitochondrial; assay: Inhibitory constant against purified Folyl-polyglutamate synthase obtained from mouse
[40] = target: T4, Folylpolyglutamate synthase, mitochondrial (Homo sapiens, UniProt Q05932); assay: Inhibitory constant against purified Folyl-polyglutamate synthase obtained from human
T4 sequence (Q05932 whole entry): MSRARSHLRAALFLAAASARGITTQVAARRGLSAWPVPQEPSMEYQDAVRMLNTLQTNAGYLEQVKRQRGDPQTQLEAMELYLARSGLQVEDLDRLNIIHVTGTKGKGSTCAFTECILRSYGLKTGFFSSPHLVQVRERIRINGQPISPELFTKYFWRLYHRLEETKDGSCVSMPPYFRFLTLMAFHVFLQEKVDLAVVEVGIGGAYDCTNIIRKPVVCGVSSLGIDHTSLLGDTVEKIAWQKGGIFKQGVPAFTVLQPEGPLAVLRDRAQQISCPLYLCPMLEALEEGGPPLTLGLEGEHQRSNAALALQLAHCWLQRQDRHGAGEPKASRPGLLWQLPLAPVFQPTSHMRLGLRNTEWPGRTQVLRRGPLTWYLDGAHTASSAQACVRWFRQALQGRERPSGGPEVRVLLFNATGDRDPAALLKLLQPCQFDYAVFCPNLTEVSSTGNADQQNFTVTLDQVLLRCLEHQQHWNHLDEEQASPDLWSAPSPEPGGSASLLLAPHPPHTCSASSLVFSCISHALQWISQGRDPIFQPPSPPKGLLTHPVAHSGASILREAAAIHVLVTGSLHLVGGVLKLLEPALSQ

[41] = target: T3, Folylpolyglutamate synthase, mitochondrial; assay: Inhibitory constant against purified Folyl-polyglutamate synthase obtained from mouse liver

| SMILES | ILS at 20 mg/kg [1] [%] | Survival [2] [days] | ILS at 60 mg/kg [3] [%] | ILS at 40 mg/kg [4] [%] | Weight change [6] [%] | IC50 [7] [µM] | IC50 [8] [µM] | Weight change [9] [%] | ILS at 80 mg/kg [10] [%] | Survival [12] [days] | IC50 [13] [µM] | Survival [14] [days] | Weight change [16] [%] | IC50 [17] [µM] | Weight change [19] [%] | IC50 [21] [µM] | Survival [22] [days] | also measured |
| --- | --- | --- | --- | --- | --- | --- | --- | --- | --- | --- | --- | --- | --- | --- | --- | --- | --- | --- |
| CN(Cc1cnc2nc(N)nc(N)c2n1)c1ccc(C(=O)NC(CCCCCCCCCC(=O)O)C(=O)O)cc1 (centres undefined) | 98 | 17.6 | 100 | 95 | 2 | 0.0071 | 0.016 | 3 | 73 | 15.2 | 10 | 17.4 | 5 | 0.034 | 6 | 58 | 17.2 | Range [5]: 15 days; inhibition [11]: 53%; Range [15]: 16 days; Range [18]: 14 days; Range [20]: 12 days |
| CN(Cc1cnc2nc(N)nc(N)c2n1)c1ccc(C(=O)NC(CCCCCCCC(=O)O)C(=O)O)cc1 (centres undefined) | 55 | 15.3 | 74 | 66 | 3 | 0.0042 | 0.062 | 6 | 73 | 15.2 | 1 | 13.6 | 6 | 0.032 | 7 | 73 | 14.6 | Range [23]: 13 days; Range [24]: 12 days; inhibition [25]: 43%; Range [26]: 14 days; Range [20]: 12 days |
| CN(Cc1cnc2nc(N)nc(N)c2n1)c1ccc(C(=O)NC(CCCCCCC(=O)O)C(=O)O)cc1 (centres undefined) | 68 | 18 | 105 | 93 | -12 | 0.0012 | 0.15 | -1 | 43 | 12.6 | 5.8 | 14.8 | 4 | 0.023 | 4 | 68 | 17 | Range [27]: 14 days; inhibition [28]: 47%; Range [29]: 9 days; Ki [30]: 320 µM; Range [31]: 17 days; Range [32]: 15 days |
| CN(Cc1cnc2nc(N)nc(N)c2n1)c1ccc(C(=O)NC(CCCCCCCCC(=O)O)C(=O)O)cc1 (centres undefined) | 73 | 15 | 70 | 92 | -5 | 0.0031 | 0.056 | 2 | 73 | 15.2 | 2.2 | 15.2 | 4 | 0.029 | 5 | 78 | 16.9 | Range [33]: 9 days; inhibition [34]: 49%; Range [35]: 13 days; Range [36]: 10 days; Range [37]: 15 days |
| Nc1nc(N)c2nc(CNc3ccc(C(=O)NC(CCCCCCCCCC(=O)O)C(=O)O)cc3)cnc2n1 (centres undefined) | – | – | – | – | – | 0.00065 | – | – | – | – | – | – | – | 0.081 | – | 110 | – | inhibition [34]: 90%; Ki [38]: 24 µM |
| NCCC[C@H](NC(=O)c1ccc(NCc2cnc3nc(N)nc(N)c3n2)cc1)C(=O)O | – | – | – | – | – | – | – | – | – | – | – | – | – | – | – | – | – | Ki [39]: 0.3 µM; Ki [40]: 0.3 µM |
| CN(Cc1cnc2nc(N)nc(N)c2n1)c1ccc(C(=O)N[C@@H](CCCN)C(=O)O)cc1 | – | – | – | – | – | – | – | – | – | – | – | – | – | – | – | – | – | Ki [41]: 20 µM; Ki [40]: 4 µM |
| Nc1nc(N)c2nc(CNc3ccc(C(=O)N[C@@H](CCC(=O)O)C(=O)O)cc3)cnc2n1 [AMINOPTERIN] | – | – | – | – | – | – | – | – | – | – | – | – | – | 0.025 | – | – | – | – |
